Test results from ChEMBL document CHEMBL2429777, “Synthesis and antibacterial activity evaluation of 2,6-bis(6-substituted-1,2,4-triazolo[3,4-b][1,3,4]thiadiazol-3-yl)pyridine derivatives” (2013).
In brackets after ≈: the same amount, converted by molar mass.

Tests used:
[1] = test system: Bacillus subtilis; experiment: Antibacterial activity against Bacillus subtilis by serial dilution method; assay type: functional
[2] = test system: Pseudomonas aeruginosa; experiment: Antibacterial activity against Pseudomonas aeruginosa by serial dilution method; assay type: functional
[3] = test system: Staphylococcus aureus; experiment: Antibacterial activity against Staphylococcus aureus by serial dilution method; assay type: functional
[4] = test system: Streptococcus pneumoniae; experiment: Antibacterial activity against Streptococcus pneumoniae by serial dilution method; assay type: functional
[5] = test system: Streptococcus pneumoniae; experiment: Antibacterial activity against Streptococcus pneumoniae at 100 ug/tube after 24 hrs by cylinder-plate method; assay type: functional
[6] = test system: Bacillus subtilis; experiment: Antibacterial activity against Bacillus subtilis at 100 ug/tube after 24 hrs by cylinder-plate method; assay type: functional
[7] = test system: Staphylococcus aureus; experiment: Antibacterial activity against Staphylococcus aureus at 250 ug/tube after 24 hrs by cylinder-plate method; assay type: functional
[8] = test system: Escherichia coli; experiment: Antibacterial activity against Escherichia coli at 250 ug/tube after 24 hrs by cylinder-plate method; assay type: functional
[9] = test system: Pseudomonas aeruginosa; experiment: Antibacterial activity against Pseudomonas aeruginosa at 250 ug/tube after 24 hrs by cylinder-plate method; assay type: functional
[10] = test system: Streptococcus pneumoniae; experiment: Antibacterial activity against Streptococcus pneumoniae at 250 ug/tube after 24 hrs by cylinder-plate method; assay type: functional
[11] = test system: Escherichia coli; experiment: Antibacterial activity against Escherichia coli by serial dilution method
[12] = test system: Bacillus subtilis; experiment: Antibacterial activity against Bacillus subtilis at 250 ug/tube after 24 hrs by cylinder-plate method; assay type: functional
[13] = test system: Pseudomonas aeruginosa; experiment: Antibacterial activity against Pseudomonas aeruginosa at 100 ug/tube after 24 hrs by cylinder-plate method; assay type: functional
[14] = test system: Escherichia coli; experiment: Antibacterial activity against Escherichia coli at 100 ug/tube after 24 hrs by cylinder-plate method; assay type: functional
[15] = test system: Staphylococcus aureus; experiment: Antibacterial activity against Staphylococcus aureus at 100 ug/tube after 24 hrs by cylinder-plate method; assay type: functional

## GENTAMICIN
[1]
  MIC: 2 µg/mL
[2]
  MIC: 1 µg/mL
[3]
  MIC: 2 µg/mL
[4]
  MIC: 2 µg/mL
[5]
  inhibition zone (IZ): 21 mm
[6]
  inhibition zone (IZ): 22 mm

## c1cc(-c2nnc3sc(-c4ccco4)nn23)nc(-c2nnc3sc(-c4ccco4)nn23)c1
[7]
  diameter of the inhibition zone (DIZ): 14 mm
[8]
  diameter of the inhibition zone (DIZ): 15 mm
[1]
  MIC: 128 µg/mL (≈ 279 µM)
[9]
  diameter of the inhibition zone (DIZ): 15 mm
[2]
  MIC: 32 µg/mL (≈ 69.6 µM)
[3]
  MIC: 64 µg/mL (≈ 139 µM)
[10]
  diameter of the inhibition zone (DIZ): 12 mm
[4]
  MIC: 128 µg/mL (≈ 279 µM)
[11]
  MIC: 64 µg/mL (≈ 139 µM)
[12]
  diameter of the inhibition zone (DIZ): 12 mm

## c1cncc(-c2nn3c(-c4cccc(-c5nnc6sc(-c7cccnc7)nn56)n4)nnc3s2)c1
[7]
  diameter of the inhibition zone (DIZ): 12 mm
[8]
  diameter of the inhibition zone (DIZ): 14 mm
[1]
  MIC: 128 µg/mL (≈ 266 µM)
[9]
  diameter of the inhibition zone (DIZ): 13 mm
[2]
  MIC: 128 µg/mL (≈ 266 µM)
[3]
  MIC: 128 µg/mL (≈ 266 µM)
[10]
  diameter of the inhibition zone (DIZ): 13 mm
[4]
  MIC: 128 µg/mL (≈ 266 µM)
[11]
  MIC: 64 µg/mL (≈ 133 µM)
[12]
  diameter of the inhibition zone (DIZ): 11 mm

## Clc1cccc(-c2nn3c(-c4cccc(-c5nnc6sc(-c7cccc(Cl)c7)nn56)n4)nnc3s2)c1
[7]
  diameter of the inhibition zone (DIZ): 14 mm
[8]
  diameter of the inhibition zone (DIZ): 15 mm
[1]
  MIC: 64 µg/mL (≈ 117 µM)
[9]
  diameter of the inhibition zone (DIZ): 14 mm
[2]
  MIC: 64 µg/mL (≈ 117 µM)
[3]
  MIC: 64 µg/mL (≈ 117 µM)
[10]
  diameter of the inhibition zone (DIZ): 16 mm
[4]
  MIC: 32 µg/mL (≈ 58.3 µM)
[11]
  MIC: 64 µg/mL (≈ 117 µM)
[12]
  diameter of the inhibition zone (DIZ): 13 mm

## c1ccc(-c2nn3c(-c4cccc(-c5nnc6sc(-c7ccccc7)nn56)n4)nnc3s2)cc1
[7]
  diameter of the inhibition zone (DIZ): 12 mm
[8]
  diameter of the inhibition zone (DIZ): 12 mm
[1]
  MIC: > 128 µg/mL
[9]
  diameter of the inhibition zone (DIZ): 10 mm
[2]
  MIC: > 128 µg/mL
[3]
  MIC: 128 µg/mL (≈ 267 µM)
[10]
  diameter of the inhibition zone (DIZ): 12 mm
[4]
  MIC: 128 µg/mL (≈ 267 µM)
[11]
  MIC: 128 µg/mL (≈ 267 µM)
[12]
  diameter of the inhibition zone (DIZ): 10 mm

## c1cc(-c2nnc3sc(-c4ccncc4)nn23)nc(-c2nnc3sc(-c4ccncc4)nn23)c1
[7]
  diameter of the inhibition zone (DIZ): 12 mm
[8]
  diameter of the inhibition zone (DIZ): 14 mm
[1]
  MIC: > 128 µg/mL
[9]
  diameter of the inhibition zone (DIZ): 13 mm
[2]
  MIC: 128 µg/mL (≈ 266 µM)
[3]
  MIC: 128 µg/mL (≈ 266 µM)
[10]
  diameter of the inhibition zone (DIZ): 13 mm
[4]
  MIC: 128 µg/mL (≈ 266 µM)
[11]
  MIC: 64 µg/mL (≈ 133 µM)
[12]
  diameter of the inhibition zone (DIZ): 10 mm

## COc1ccc(-c2nn3c(-c4cccc(-c5nnc6sc(-c7ccc(OC)cc7)nn56)n4)nnc3s2)cc1
[7]
  diameter of the inhibition zone (DIZ): 14 mm
[8]
  diameter of the inhibition zone (DIZ): 16 mm
[1]
  MIC: 64 µg/mL (≈ 119 µM)
[9]
  diameter of the inhibition zone (DIZ): 12 mm
[2]
  MIC: 128 µg/mL (≈ 237 µM)
[3]
  MIC: 64 µg/mL (≈ 119 µM)
[10]
  diameter of the inhibition zone (DIZ): 14 mm
[4]
  MIC: 64 µg/mL (≈ 119 µM)
[11]
  MIC: 32 µg/mL (≈ 59.3 µM)
[12]
  diameter of the inhibition zone (DIZ): 14 mm

## Cc1ccc(-c2nn3c(-c4cccc(-c5nnc6sc(-c7ccc(C)cc7)nn56)n4)nnc3s2)cc1
[7]
  diameter of the inhibition zone (DIZ): 13 mm
[8]
  diameter of the inhibition zone (DIZ): 14 mm
[1]
  MIC: > 128 µg/mL
[9]
  diameter of the inhibition zone (DIZ): 10 mm
[2]
  MIC: > 128 µg/mL
[3]
  MIC: 128 µg/mL (≈ 252 µM)
[10]
  diameter of the inhibition zone (DIZ): 13 mm
[4]
  MIC: 128 µg/mL (≈ 252 µM)
[11]
  MIC: 64 µg/mL (≈ 126 µM)
[12]
  diameter of the inhibition zone (DIZ): 10 mm

## Ic1cccc(-c2nn3c(-c4cccc(-c5nnc6sc(-c7cccc(I)c7)nn56)n4)nnc3s2)c1
[7]
  diameter of the inhibition zone (DIZ): 16 mm
[8]
  diameter of the inhibition zone (DIZ): 18 mm
[1]
  MIC: 64 µg/mL (≈ 87.5 µM)
[9]
  diameter of the inhibition zone (DIZ): 15 mm
[2]
  MIC: 64 µg/mL (≈ 87.5 µM)
[3]
  MIC: 32 µg/mL (≈ 43.8 µM)
[10]
  diameter of the inhibition zone (DIZ): 14 mm
[4]
  MIC: 64 µg/mL (≈ 87.5 µM)
[11]
  MIC: 32 µg/mL (≈ 43.8 µM)
[12]
  diameter of the inhibition zone (DIZ): 14 mm

## CC1(C)S[C@@H]2[C@H](NC(=O)[C@H](N)c3ccccc3)C(=O)N2[C@H]1C(=O)[O-].[Na+] [AMPICILLIN SODIUM]
[13]
  diameter of the inhibition zone (DIZ): 17 mm
[1]
  MIC: 0.5 µg/mL
[2]
  MIC: 2 µg/mL
[3]
  MIC: 1 µg/mL
[14]
  diameter of the inhibition zone (DIZ): 17 mm
[15]
  diameter of the inhibition zone (DIZ): 23 mm
[4]
  MIC: 2 µg/mL
[5]
  diameter of the inhibition zone (DIZ): 18 mm
[6]
  diameter of the inhibition zone (DIZ): 21 mm

## Clc1ccc(-c2nn3c(-c4cccc(-c5nnc6sc(-c7ccc(Cl)cc7)nn56)n4)nnc3s2)cc1
[7]
  diameter of the inhibition zone (DIZ): 15 mm
[8]
  diameter of the inhibition zone (DIZ): 17 mm
[1]
  MIC: 64 µg/mL (≈ 117 µM)
[9]
  diameter of the inhibition zone (DIZ): 15 mm
[2]
  MIC: 32 µg/mL (≈ 58.3 µM)
[3]
  MIC: 32 µg/mL (≈ 58.3 µM)
[10]
  diameter of the inhibition zone (DIZ): 16 mm
[4]
  MIC: 32 µg/mL (≈ 58.3 µM)
[11]
  MIC: 32 µg/mL (≈ 58.3 µM)
[12]
  diameter of the inhibition zone (DIZ): 14 mm

## Cc1nn2c(-c3cccc(-c4nnc5sc(C)nn45)n3)nnc2s1
[7]
  diameter of the inhibition zone (DIZ): 12 mm
[8]
  diameter of the inhibition zone (DIZ): 14 mm
[1]
  MIC: > 128 µg/mL
[9]
  diameter of the inhibition zone (DIZ): 12 mm
[2]
  MIC: 128 µg/mL (≈ 360 µM)
[3]
  MIC: 128 µg/mL (≈ 360 µM)
[10]
  diameter of the inhibition zone (DIZ): 12 mm
[4]
  MIC: 128 µg/mL (≈ 360 µM)
[11]
  MIC: 64 µg/mL (≈ 180 µM)
[12]
  diameter of the inhibition zone (DIZ): 10 mm

## O=[N+]([O-])c1cccc(-c2nn3c(-c4cccc(-c5nnc6sc(-c7cccc([N+](=O)[O-])c7)nn56)n4)nnc3s2)c1
[7]
  diameter of the inhibition zone (DIZ): 13 mm
[8]
  diameter of the inhibition zone (DIZ): 14 mm
[1]
  MIC: 128 µg/mL (≈ 225 µM)
[9]
  diameter of the inhibition zone (DIZ): 12 mm
[2]
  MIC: 128 µg/mL (≈ 225 µM)
[3]
  MIC: 128 µg/mL (≈ 225 µM)
[10]
  diameter of the inhibition zone (DIZ): 14 mm
[4]
  MIC: 64 µg/mL (≈ 112 µM)
[11]
  MIC: 64 µg/mL (≈ 112 µM)
[12]
  diameter of the inhibition zone (DIZ): 11 mm

## O=[N+]([O-])c1ccc(-c2nn3c(-c4cccc(-c5nnc6sc(-c7ccc([N+](=O)[O-])cc7)nn56)n4)nnc3s2)cc1
[7]
  diameter of the inhibition zone (DIZ): 13 mm
[8]
  diameter of the inhibition zone (DIZ): 15 mm
[1]
  MIC: 128 µg/mL (≈ 225 µM)
[9]
  diameter of the inhibition zone (DIZ): 12 mm
[2]
  MIC: 128 µg/mL (≈ 225 µM)
[3]
  MIC: 128 µg/mL (≈ 225 µM)
[10]
  diameter of the inhibition zone (DIZ): 15 mm
[4]
  MIC: 64 µg/mL (≈ 112 µM)
[11]
  MIC: 64 µg/mL (≈ 112 µM)
[12]
  diameter of the inhibition zone (DIZ): 11 mm
